What was measured:
[1] = test system: BALB/c mice; assay: Immunity experiment: thymus weight/body weight ratio; assay type: in vivo; conditions: male BALB/c mice, gavage daily, three months; Example 1 0.50, selenium-enriched yeast 0.05, yeast beta-glucan 0.15, Vitamin C 0.20, Vitamin E 0.10 g/kg·bw
Description: (§1) 60 male BALB/c mice of clean grade with body weight 18-22 g were purchased from Shanghai Xipu'er-Bikai Experimental Animal Co., Ltd. (Add: […] Physiological saline was administered to the blank group. Three months later, a plurality of immune index of mice comprising thymus weight/body weight ratio, humoral immunity function (antibody index) and cellular immune function (NK cell activity) were measured. The measurement method was the same as the method for evaluating health food.

[2] = test system: superoxide dismutase (SOD); assay: Anti-oxidation experiment: SOD activity; assay type: in vivo, human
Description: (§2) During the experiment, all the volunteers kept original living and dietary habits. […] Subsequently, the content of lipid peroxide (malondialdehyde (MDA)), superoxide dismutase (SOD) activity and glutathione peroxidase (GSH-PX) activity of the volunteers were measured. The measurement method was the same as the method for evaluating health food.

[3] = test system: lipid peroxide (malondialdehyde (MDA)); assay: Anti-oxidation experiment: content of lipid peroxide (MDA); assay type: in vivo, human
Description: as §2

[4] = test system: spleen cells; assay: Immunity experiment: antibody cell detection (plaque forming cells), humoral immunity function; assay type: in vivo; conditions: male BALB/c mice, gavage daily, three months; Example 1 0.50, selenium-enriched yeast 0.05, yeast beta-glucan 0.15, Vitamin C 0.20, Vitamin E 0.10 g/kg·bw
Description: as §1

[5] = test system: NK cell; assay: Immunity experiment: NK cell activity, cellular immune function; assay type: in vivo; conditions: male BALB/c mice, gavage daily, three months; Example 1 0.50, selenium-enriched yeast 0.05, yeast beta-glucan 0.15, Vitamin C 0.20, Vitamin E 0.10 g/kg·bw
Description: as §1

[6] = test system: glutathione peroxidase (GSH-PX); assay: Anti-oxidation experiment: GSH-Px activity; assay type: in vivo, human
Description: as §2

[7] = volunteers 45-65 years, before administration (baseline)
[8] = volunteers, after administration two times a day for three months, Example 2 500 mg, selenium-enriched yeast 150 mg, yeast beta-glucan 450 mg, Vitamin C 2.5 mg, Vitamin E 2.5 mg each time

Row | Compound | Thymus weight/body weight ratio [1] | SOD activity [2, 7] | SOD activity [2, 8] | MDA content [3, 7] | MDA content [3, 8] | Antibody cell detection Quantity of plaque forming cells [4] | NK cell activity [5] | GSH-Px activity [6, 7] | GSH-Px activity [6, 8]
1 | O=C1O[C@H]([C@@H](O)CO)C(O)=C1O [Vitamin C] | 1.80 ± 0.57 mg/g | 13335.1 ± 1466.6 U/gHb | 13345.5 ± 1472.7 U/gHb | 5.77 ± 0.65 nmol/mL | 5.75 ± 0.60 nmol/mL | 87 ± 41 /106 spleen cells | 18.18 ± 4.14% | 121.6 ± 15.67 U/mL | 123.7 ± 15.33 U/mL
2 | Vitamin E | 1.90 ± 0.33 mg/g | 13297.0 ± 2193.7 U/gHb | 13375.6 ± 2014.7 U/gHb | 5.74 ± 0.55 nmol/mL | 5.72 ± 0.65 nmol/mL | 96 ± 21 /106 spleen cells | 18.02 ± 5.31% | 120.8 ± 13.12 U/mL | 121.9 ± 9.78 U/mL

Source: patent US8883137B2, “Compositions comprising selenium-rich yeast and yeast beta-glucan” (Angel Yeast Co., Ltd., priority 2008, dated 2014)
